Source: the supplement of paper PMC10307832

Compound: CO[C@@H]1[C@H](N(C)C(=O)c2ccccc2)C[C@H]2O[C@]1(C)n1c3ccccc3c3c4c(c5c6ccccc6n2c5c31)C(=O)NC4 [Midostaurin] + CC1(C)CCC(c2ccc(Cl)cc2)=C(CN2CCN(c3ccc(C(=O)NS(=O)(=O)c4ccc(N[C@H](CCN5CCOCC5)CSc5ccccc5)c(S(=O)(=O)C(F)(F)F)c4)cc3)CC2)C1 [Navitoclax] (partner 0.5 µM)
Test: relative viability (nuclei count vs DMSO), 5 days (fraction); higher = more cells survive
Conditions: first compound 0.1 µM
Procedure, shortened: (§1)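 Each reported value is a median over duplicate plates. It expresses relative viability: treated-well nuclei count divided by vehicle-well nuclei count. Lung cancer cell lines in 1536-well plates were dosed by pin tool a day after seeding, alone with one drug or with a fixed anchor-drug dose plus five library-drug doses (not always all listed) in √10 steps, and nuclei were counted after 5 days.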

| Cell Line | relative viability |
| --- | --- |
| COR-L 105 | 0.51 |
| LOU-NH91 | 0.729 |
| NCI-H2170 | 0.549 |
| HOP-62 | 0.957 |
| LU99A | 0.576 |
| BEN | 0.0815 |
| HARA | 1.14 |
| HCC-78 | 0.815 |
| NCI-H322M | 1.31 |
| LCLC-97TM1 | 0.393 |
| NCI-H2009 | 1.03 |
| A-427 | 0.883 |
| NCI-H441 | 0.522 |
| NCI-H1734 | 0.798 |
| NCI-H460 | 1.05 |
| NCI-H2347 | 0.902 |
| SK-LU-1 | 0.808 |
| NCI-H1395 | 1.17 |
| 201T | 1.17 |
| NCI-H1915 | 0.794 |
| HCC-827 | 0.958 |
| LXF-289 | 0.875 |
| NCI-H23 | 0.396 |
| NCI-H647 | 0.953 |
| CAL-12T | 1.05 |
| NCI-H1651 | 0.897 |
| EPLC-272H | 0.856 |
| NCI-H2228 | 1.01 |
| NCI-H1355 | 1.01 |

Same assay, conditions: first compound 0.3162 µM

| Cell Line | relative viability |
| --- | --- |
| COR-L 105 | 0.862 |
| LOU-NH91 | 0.825 |
| NCI-H2170 | 0.569 |
| NCI-H2405 | 0.655 |
| HOP-62 | 1.04 |
| LU99A | 0.792 |
| BEN | 0.064 |
| HARA | 1.14 |
| HCC-78 | 0.341 |
| NCI-H322M | 1.26 |
| LCLC-97TM1 | 0.508 |
| NCI-H2009 | 1.15 |
| A-427 | 0.767 |
| NCI-H441 | 0.554 |
| NCI-H1734 | 0.697 |
| NCI-H460 | 1.07 |
| NCI-H2347 | 0.889 |
| SK-LU-1 | 0.886 |
| NCI-H1395 | 1.25 |
| 201T | 1.25 |
| NCI-H1915 | 0.799 |
| HCC-827 | 1.1 |
| LXF-289 | 0.968 |
| NCI-H23 | 0.788 |
| NCI-H647 | 0.738 |
| CAL-12T | 1.2 |
| NCI-H1651 | 0.898 |
| EPLC-272H | 1.27 |
| NCI-H2228 | 1.02 |
| NCI-H1355 | 0.847 |

Compound: COc1cc(-c2nn([C@H]3CC[C@H](N4CCN(C(C)=O)CC4)CC3)c3ncnc(N)c23)ccc1NC(=O)c1cc2ccccc2n1C + CC1(C)CCC(c2ccc(Cl)cc2)=C(CN2CCN(c3ccc(C(=O)NS(=O)(=O)c4ccc(N[C@H](CCN5CCOCC5)CSc5ccccc5)c(S(=O)(=O)C(F)(F)F)c4)cc3)CC2)C1 [Navitoclax] (partner 0.5 µM)
Test: as above
Conditions: first compound 0.0128 µM
Procedure, shortened: as §1

| Cell Line | relative viability |
| --- | --- |
| COR-L 105 | 0.728 |
| LOU-NH91 | 0.658 |
| NCI-H2170 | 0.652 |
| NCI-H2405 | 0.744 |
| HOP-62 | 1.06 |
| LU99A | 0.854 |
| BEN | 0.062 |
| HARA | 1.14 |
| HCC-78 | 0.947 |
| NCI-H322M | 1.36 |
| LCLC-97TM1 | 0.464 |
| NCI-H2009 | 1.16 |
| A-427 | 1.06 |
| NCI-H441 | 0.868 |
| NCI-H1734 | 0.879 |
